For this data set the following is noted: Liquid, Ebulliometric method (Recirculating still).

The structures appear in SMILES notation. ± gives the expanded uncertainty stated by the source.

Usually vapor or sublimation pressure stands for the equilibrium pressure above the liquid or solid.

`CC(F)F` [1,1-difluoroethane]: the “vapor or sublimation pressure” value runs as follows: (273.15 K) 264 ± 2 kPa; (283.15 K) 372 ± 2 kPa; (293.15 K) 512 ± 3 kPa; (303.15 K) 689 ± 3 kPa; (313.15 K) 909 ± 4 kPa; (323.15 K) 1176 ± 5 kPa.
For `CCCC` [butane], the “vapor or sublimation pressure” value runs as follows: (273.15 K) 104 ± 2 kPa; (283.15 K) 150 ± 2 kPa; (293.15 K) 208 ± 2 kPa; (303.15 K) 284 ± 2 kPa; (313.15 K) 378 ± 3 kPa; (323.15 K) 495 ± 3 kPa.

The record behind these values is the NIST ThermoML archive (doi:10.1016/j.fluid.2007.07.010).
